Results as given in ChEMBL document CHEMBL1201862, “PubChem BioAssay data set” (2004).
Active and inactive are the calls of the source.

Key:
[1] = biological target: T1, Tyrosine-protein phosphatase non-receptor type 7 (Homo sapiens, UniProt P35236); assay: inhibitors of human HePTP phosphatase, […], biochemical, absorbance, leukemia target (AID 521); format: functional
T1 sequence (P35236 whole entry): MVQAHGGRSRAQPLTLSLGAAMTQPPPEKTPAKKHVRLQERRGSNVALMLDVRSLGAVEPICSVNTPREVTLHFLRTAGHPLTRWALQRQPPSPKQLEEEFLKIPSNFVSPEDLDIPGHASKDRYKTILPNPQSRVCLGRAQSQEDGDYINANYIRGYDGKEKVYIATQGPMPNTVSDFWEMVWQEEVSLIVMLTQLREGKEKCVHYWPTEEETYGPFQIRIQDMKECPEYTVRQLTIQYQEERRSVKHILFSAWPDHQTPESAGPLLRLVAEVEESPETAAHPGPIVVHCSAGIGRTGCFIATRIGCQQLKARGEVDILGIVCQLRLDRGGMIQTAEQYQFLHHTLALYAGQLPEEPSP

[2] = biological target: T2, Voltage-gated N-type calcium channel alpha-1B subunit/Amyloid beta A4 precursor protein-binding family A member 1 (Homo sapiens, UniProt Q00975+Q02410); format: protein assay
[3] = M. tuberculosis H37Rv growth inhibitors, H37Rv strain (AID 1626); format: functional
[4] = biological target: T2, Voltage-gated N-type calcium channel alpha-1B subunit/Amyloid beta A4 precursor protein-binding family A member 1; format: protein assay; remark: listed apart in the source
[5] = biological target: Ubiquitin carboxyl-terminal hydrolase BAP1 (Homo sapiens, UniProt Q92560); assay: BAP1 deubiquitinase inhibitors, dose response, biochemical (AID 714); format: functional
[6] = Luminescence Cell-Based Dose Confirmation HTS to Identify Inhibitors of Platelet Dense Granule Release. [Related pubchem assays: 1663 (Primary HTS), 1678 (Summary of Project)]; format: functional
[7] = biological target: Luciferin 4-monooxygenase (Photinus pyralis, UniProt P08659); assay: firefly luciferase enzyme inhibitors, dose response, biochemical, luminescence (AID 1891)
[8] = biological target: T3, Protein RecA (Mycobacterium tuberculosis, UniProt P9WHJ3); assay: Fluorescence Cell-Free Homogeneous Dose Retest to Identify Inhibitors of RecA-Intein Splicing Activity. [Related pubchem assays (depositor defined):AID2097, AID2223, AID489010, AID492950]; format: functional
T3 sequence (P9WHJ3 whole entry): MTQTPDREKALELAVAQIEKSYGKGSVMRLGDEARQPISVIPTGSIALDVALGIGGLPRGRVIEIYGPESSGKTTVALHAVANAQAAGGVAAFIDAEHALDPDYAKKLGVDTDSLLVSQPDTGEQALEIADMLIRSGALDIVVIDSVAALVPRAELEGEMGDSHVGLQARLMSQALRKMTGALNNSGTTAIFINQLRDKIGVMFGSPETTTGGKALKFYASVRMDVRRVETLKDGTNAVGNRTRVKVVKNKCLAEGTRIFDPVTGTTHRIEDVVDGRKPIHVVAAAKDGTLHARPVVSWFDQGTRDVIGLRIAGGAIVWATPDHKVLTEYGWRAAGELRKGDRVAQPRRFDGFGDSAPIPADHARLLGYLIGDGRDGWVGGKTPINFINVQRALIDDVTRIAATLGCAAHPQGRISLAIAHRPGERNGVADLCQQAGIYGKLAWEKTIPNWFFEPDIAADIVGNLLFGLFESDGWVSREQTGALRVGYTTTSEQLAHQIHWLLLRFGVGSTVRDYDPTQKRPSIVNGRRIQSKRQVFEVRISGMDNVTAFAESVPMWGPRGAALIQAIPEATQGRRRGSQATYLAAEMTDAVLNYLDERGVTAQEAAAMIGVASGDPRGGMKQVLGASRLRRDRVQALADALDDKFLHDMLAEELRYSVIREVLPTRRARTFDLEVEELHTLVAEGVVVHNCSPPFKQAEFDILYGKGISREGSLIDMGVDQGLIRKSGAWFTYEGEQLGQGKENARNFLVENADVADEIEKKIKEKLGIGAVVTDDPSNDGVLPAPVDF

[9] = Luminescent dose response cell-based high throughput screening assay for inhibitors of the Janus kinase 2 mutant JAK2V617F. [Related pubchem assays: 1446 (Primary screen.), 1521 (Confirmation assay.), 1486 (Counter screen.)]; format: functional
[10] = biological target: T4, Replicative DNA helicase DnaB (Mycobacterium tuberculosis, UniProt P9WMR3); assay: DnaB intein splicing inhibitors, dose response, biochemical, cell-free fluorescence (AID 449749); format: functional
T4 sequence (P9WMR3 whole entry): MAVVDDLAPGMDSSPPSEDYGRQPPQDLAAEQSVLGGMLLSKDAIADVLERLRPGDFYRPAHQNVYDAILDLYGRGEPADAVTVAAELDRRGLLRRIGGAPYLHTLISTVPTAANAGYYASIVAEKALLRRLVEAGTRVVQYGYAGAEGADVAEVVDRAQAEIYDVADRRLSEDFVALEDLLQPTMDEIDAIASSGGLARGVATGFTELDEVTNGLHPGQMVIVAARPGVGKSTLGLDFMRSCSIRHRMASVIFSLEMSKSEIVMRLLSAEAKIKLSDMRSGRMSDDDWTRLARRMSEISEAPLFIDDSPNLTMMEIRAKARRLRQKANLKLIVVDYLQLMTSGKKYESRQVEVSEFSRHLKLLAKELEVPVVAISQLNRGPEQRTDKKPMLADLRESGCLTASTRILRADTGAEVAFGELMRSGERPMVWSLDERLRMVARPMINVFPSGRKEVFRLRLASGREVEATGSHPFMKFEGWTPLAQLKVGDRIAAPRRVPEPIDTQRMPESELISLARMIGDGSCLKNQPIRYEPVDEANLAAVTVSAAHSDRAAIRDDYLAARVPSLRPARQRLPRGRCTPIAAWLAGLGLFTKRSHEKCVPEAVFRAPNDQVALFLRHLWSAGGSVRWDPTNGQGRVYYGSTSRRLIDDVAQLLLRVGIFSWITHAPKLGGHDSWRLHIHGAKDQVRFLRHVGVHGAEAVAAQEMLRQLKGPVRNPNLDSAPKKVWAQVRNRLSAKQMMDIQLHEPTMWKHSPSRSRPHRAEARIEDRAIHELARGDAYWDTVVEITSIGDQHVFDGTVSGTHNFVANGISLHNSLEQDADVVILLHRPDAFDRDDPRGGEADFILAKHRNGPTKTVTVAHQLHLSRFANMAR

[11] = biological target: Sphingosine 1-phosphate receptor 2 (Homo sapiens, UniProt O95136); assay: Dose Response Cell Based Assay for Agonists of the S1P2 Receptor. [Related pubchem assays: 729, 736, 843 ]; format: functional
[12] = biological target: T5, Rac GTPase-activating protein 1 (Homo sapiens, UniProt Q9H0H5); assay: MgcRacGAP GTPase-activating activity inhibitors, confirmation, biochemical, ADP Hunter fluorescence, primary and confirmatory (AID 624330); format: functional
T5 sequence (Q9H0H5 whole entry): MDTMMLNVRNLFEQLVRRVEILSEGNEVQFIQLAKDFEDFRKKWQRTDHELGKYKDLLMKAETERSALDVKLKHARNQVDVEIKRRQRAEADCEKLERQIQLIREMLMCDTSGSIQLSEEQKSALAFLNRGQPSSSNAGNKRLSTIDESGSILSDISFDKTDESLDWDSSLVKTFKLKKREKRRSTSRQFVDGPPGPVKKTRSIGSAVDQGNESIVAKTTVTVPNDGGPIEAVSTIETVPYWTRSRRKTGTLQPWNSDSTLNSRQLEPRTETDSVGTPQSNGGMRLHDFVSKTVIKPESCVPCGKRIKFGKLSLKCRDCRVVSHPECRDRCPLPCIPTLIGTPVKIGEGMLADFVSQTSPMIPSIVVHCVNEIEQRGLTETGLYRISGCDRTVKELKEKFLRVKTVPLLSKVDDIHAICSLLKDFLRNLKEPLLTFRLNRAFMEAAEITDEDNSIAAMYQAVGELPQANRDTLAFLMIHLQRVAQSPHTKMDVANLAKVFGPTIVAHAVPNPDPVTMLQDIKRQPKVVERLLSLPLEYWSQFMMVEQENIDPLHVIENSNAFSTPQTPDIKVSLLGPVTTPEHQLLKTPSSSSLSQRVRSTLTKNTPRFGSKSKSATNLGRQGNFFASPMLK

[13] = system: INS1; assay: beta cell apoptosis inhibitors, cytokine rescue, dose response, luminescence, retest (AID 449756); format: functional, cell-based; details: Rattus norvegicus;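 also: cell death triggered by IL-1 beta plus TNF-alpha plus IFN-gamma mixture; protective hits raise ATP signal compared with cytokine alone wells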
[14] = cells; format: functional, cell-based
[15] = system: Streptococcus; assay: Group A Streptococcus viability loss, dose response, counter-screen for streptokinase expression inhibitor project, luminescence, BacTiterGlo (AID 1915); format: functional, organism-based;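 also: potency for reduction of bacterial viability or growth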
[16] = biological target: Galanin receptor type 2 (Homo sapiens, UniProt O43603); assay: Dose Response cell-based high-throughput screening assay to identify agonists of galanin receptor 2 (GALR2). [Related pubchem assays: 864 ]; format: functional
[17] = cytotoxicity toward NIH3T3 fibroblasts, dose response, counter-screen, cell-based, ATP luminescence, mouse fibroblasts (AID 2010); format: functional;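 also: cells exposed to compound for about 90 hours before reading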
[18] = inhibitors of intracellular T. cruzi replication, confirmation, NIH3T3 host cells, beta-gal luminescence (AID 2044); format: functional, cell-based;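 also: intracellular parasites grown in NIH/3T3 mouse fibroblasts as host cells; luminescent beta-galactosidase reporter signal from transgenic T. cruzi replicating inside host cells; inhibitors lower the luminescence signal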
[19] = biological target: T6, Streptokinase A (Streptococcus pyogenes serotype M1, UniProt P10520); assay: S. pyogenes streptokinase expression inhibitors, potency, dose response, plasminogen activation absorbance, OD405 (AID 1914); format: functional, Streptococcus pyogenes M1 GAS;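 also: secreted streptokinase activity via plasminogen activation per viability signal from cell pellet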
T6 sequence (P10520 whole entry): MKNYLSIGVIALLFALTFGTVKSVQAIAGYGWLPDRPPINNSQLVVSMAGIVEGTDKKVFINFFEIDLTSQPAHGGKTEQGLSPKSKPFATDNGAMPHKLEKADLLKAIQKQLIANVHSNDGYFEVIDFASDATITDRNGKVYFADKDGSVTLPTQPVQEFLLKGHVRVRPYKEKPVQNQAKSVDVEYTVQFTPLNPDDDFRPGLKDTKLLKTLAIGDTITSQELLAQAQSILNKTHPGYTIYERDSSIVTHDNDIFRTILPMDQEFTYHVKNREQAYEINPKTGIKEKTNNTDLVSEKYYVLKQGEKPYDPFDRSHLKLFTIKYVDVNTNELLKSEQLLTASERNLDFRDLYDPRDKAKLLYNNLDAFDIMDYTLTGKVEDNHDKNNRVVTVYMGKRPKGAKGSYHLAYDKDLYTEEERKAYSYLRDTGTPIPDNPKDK

[20] = system: Streptococcus sp. 'group A'; assay: growth inhibition of control SK(-) GAS strain, dose response, counter-screen for streptokinase expression inhibitor project, luminescence, kanamycin, BacTiterGlo, confirmation (AID 1900); format: functional, organism-based
[21] = cells; format: functional, cell-based; remark: listed apart in the source
[22] = biological target: Cytochrome P450 2C19 (Homo sapiens, UniProt P33261); assay: qHTS Assay for Inhibitors and Substrates of Cytochrome P450 2C19. [Related pubchem assays: 410 ]; format: ADME; details: read-out: Potency

T2 sequence (Q00975 whole entry): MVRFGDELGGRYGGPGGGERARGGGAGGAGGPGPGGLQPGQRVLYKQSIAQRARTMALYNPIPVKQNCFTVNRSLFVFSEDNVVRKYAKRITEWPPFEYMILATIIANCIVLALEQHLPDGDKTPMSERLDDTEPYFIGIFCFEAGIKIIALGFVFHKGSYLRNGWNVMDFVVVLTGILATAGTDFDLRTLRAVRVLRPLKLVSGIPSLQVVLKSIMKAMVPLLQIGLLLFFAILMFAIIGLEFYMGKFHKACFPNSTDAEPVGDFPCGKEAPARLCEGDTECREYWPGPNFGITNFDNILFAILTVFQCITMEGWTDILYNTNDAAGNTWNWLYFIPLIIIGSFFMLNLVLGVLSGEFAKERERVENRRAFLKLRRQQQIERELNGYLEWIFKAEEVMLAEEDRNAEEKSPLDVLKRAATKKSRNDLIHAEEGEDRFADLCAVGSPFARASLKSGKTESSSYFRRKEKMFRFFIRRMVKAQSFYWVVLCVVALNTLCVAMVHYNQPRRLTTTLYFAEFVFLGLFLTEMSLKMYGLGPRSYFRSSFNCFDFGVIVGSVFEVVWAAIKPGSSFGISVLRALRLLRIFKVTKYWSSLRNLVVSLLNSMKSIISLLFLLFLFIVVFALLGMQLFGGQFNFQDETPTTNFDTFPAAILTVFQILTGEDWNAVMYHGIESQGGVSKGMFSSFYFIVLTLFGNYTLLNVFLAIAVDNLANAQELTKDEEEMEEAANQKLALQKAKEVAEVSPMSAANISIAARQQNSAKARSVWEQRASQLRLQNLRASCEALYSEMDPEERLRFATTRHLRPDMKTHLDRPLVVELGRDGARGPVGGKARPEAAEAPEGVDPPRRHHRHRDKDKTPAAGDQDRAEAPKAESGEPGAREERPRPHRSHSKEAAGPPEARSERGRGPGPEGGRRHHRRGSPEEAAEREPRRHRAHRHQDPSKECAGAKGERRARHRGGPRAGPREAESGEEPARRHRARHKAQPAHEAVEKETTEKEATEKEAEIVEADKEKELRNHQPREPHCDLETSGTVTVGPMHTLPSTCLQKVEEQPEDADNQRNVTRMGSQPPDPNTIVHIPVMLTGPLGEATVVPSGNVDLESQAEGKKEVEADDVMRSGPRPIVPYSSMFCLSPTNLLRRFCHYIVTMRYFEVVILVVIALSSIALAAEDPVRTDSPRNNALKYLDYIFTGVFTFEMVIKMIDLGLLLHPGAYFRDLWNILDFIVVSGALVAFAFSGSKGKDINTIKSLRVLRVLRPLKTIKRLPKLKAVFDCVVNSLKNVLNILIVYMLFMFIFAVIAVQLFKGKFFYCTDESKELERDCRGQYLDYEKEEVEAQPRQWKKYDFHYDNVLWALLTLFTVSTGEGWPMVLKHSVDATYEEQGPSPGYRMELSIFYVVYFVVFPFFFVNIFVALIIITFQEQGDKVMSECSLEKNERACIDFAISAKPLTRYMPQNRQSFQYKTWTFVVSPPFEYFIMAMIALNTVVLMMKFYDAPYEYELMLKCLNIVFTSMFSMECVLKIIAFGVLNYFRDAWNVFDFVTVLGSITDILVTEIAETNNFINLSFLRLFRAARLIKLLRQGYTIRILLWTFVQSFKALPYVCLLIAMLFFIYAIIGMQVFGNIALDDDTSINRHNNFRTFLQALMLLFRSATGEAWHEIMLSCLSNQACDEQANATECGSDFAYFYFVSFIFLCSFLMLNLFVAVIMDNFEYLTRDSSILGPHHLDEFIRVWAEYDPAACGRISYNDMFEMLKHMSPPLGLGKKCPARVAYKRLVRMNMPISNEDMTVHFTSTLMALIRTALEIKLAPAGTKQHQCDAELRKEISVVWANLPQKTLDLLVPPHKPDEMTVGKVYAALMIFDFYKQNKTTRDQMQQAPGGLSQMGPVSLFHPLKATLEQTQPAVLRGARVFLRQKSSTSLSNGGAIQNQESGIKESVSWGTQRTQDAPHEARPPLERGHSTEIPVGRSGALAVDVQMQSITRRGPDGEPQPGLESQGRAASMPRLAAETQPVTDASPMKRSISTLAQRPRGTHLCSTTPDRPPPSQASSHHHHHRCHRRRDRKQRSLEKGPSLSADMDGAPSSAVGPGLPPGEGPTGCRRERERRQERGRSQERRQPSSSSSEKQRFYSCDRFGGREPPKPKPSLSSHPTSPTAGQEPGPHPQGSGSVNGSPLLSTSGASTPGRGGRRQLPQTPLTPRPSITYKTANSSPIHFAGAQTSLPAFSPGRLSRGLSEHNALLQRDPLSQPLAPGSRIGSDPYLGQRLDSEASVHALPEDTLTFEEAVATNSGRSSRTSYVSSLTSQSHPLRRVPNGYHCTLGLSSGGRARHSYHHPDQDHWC
T2 sequence (Q02410 whole entry): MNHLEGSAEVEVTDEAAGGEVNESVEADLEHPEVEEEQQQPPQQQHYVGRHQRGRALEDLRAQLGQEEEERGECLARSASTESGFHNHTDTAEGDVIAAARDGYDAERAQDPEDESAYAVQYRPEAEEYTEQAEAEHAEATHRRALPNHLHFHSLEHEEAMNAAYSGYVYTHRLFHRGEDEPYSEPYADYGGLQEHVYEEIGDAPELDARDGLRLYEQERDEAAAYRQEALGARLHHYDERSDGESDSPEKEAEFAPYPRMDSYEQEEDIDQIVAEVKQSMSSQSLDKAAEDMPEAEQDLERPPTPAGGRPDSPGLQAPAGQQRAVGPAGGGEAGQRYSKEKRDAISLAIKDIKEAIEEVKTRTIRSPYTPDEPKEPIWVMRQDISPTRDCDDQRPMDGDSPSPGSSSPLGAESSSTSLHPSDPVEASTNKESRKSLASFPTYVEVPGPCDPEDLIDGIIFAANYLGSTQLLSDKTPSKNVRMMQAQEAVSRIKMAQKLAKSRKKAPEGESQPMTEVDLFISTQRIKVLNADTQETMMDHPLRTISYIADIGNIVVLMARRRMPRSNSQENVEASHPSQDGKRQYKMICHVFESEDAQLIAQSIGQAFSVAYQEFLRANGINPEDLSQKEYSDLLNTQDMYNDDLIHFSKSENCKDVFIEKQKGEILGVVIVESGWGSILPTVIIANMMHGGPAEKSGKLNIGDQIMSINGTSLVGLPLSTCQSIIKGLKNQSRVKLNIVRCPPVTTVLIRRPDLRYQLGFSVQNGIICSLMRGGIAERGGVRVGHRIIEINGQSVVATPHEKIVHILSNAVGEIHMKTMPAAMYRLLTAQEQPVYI
Ubiquitin carboxyl-terminal hydrolase BAP1, sequence (Q92560 whole entry): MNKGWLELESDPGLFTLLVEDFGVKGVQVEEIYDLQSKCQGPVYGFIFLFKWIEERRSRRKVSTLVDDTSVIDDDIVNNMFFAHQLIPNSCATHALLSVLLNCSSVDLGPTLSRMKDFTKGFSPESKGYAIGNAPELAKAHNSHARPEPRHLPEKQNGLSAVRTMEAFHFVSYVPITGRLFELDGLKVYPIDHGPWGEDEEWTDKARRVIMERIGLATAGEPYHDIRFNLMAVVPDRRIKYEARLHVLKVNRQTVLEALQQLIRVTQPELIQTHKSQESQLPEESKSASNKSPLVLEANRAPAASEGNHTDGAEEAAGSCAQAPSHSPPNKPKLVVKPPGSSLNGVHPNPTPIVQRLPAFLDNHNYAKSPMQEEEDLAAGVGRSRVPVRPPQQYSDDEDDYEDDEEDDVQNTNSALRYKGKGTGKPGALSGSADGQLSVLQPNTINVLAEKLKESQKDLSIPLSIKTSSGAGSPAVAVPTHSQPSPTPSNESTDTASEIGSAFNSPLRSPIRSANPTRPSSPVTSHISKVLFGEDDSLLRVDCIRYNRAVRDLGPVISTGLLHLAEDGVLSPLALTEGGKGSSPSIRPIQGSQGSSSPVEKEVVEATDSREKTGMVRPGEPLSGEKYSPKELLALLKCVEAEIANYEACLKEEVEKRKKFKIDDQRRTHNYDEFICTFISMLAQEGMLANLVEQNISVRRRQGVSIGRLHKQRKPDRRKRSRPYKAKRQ
Luciferin 4-monooxygenase, sequence (P08659 whole entry): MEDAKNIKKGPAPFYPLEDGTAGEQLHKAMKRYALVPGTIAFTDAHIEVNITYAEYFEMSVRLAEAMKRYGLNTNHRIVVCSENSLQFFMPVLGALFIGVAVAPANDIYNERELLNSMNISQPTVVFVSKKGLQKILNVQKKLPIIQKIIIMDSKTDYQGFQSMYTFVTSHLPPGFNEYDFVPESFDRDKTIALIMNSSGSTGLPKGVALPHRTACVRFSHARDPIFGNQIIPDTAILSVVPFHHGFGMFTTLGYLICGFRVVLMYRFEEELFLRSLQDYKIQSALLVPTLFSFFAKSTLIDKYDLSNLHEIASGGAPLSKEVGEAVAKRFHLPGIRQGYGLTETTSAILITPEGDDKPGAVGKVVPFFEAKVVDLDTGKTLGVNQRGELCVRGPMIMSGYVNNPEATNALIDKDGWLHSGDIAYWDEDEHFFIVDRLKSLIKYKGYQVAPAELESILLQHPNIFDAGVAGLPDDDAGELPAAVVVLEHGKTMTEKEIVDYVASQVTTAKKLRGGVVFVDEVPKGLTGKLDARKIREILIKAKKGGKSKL
Sphingosine 1-phosphate receptor 2, sequence (O95136 whole entry): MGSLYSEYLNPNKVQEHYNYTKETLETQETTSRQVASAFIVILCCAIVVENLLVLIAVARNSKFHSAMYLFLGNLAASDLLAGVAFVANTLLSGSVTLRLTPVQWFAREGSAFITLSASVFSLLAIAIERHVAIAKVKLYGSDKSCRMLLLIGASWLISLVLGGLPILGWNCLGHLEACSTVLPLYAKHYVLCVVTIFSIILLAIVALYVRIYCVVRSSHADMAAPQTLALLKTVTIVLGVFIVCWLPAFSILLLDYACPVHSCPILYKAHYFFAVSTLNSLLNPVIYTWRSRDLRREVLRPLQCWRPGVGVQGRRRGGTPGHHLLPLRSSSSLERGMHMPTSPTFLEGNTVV

In the case of `Nc1nc(Nc2cccc3ccccc23)nc(C2CCCC2=O)n1` (configuration not stated), the IC50 [1] is reported as > 100 µM (not active).

In the case of `COc1ccc(C2CC(=O)N3CN(c4ccc(C)c(Cl)c4)CSC3=C2C#N)cc1OC` (configuration not stated), the IC50 [2] is reported as > 56.8 µM (not active), the IC50 [3] is reported as > 100 µM (active) and the IC50 [4] is reported as > 50 µM (inactive). The IC50 [5] was > 50 µM (not active), the EC50 [6] was > 112 µM (not active) and the EC50 [7] was > 112 µM (not active).

With `CC(C)(C)c1cc(NC(=O)CCl)n(-c2ccccc2)n1` the EC50 [8] was 13.6 µM (active), the IC50 [9] was 1.79 µM (active) and the AC50 [10] was 65.1 µM (active).

In the case of `CCOCCCNc1nc(S)nc2cc(OC)c(OC)cc12`, the EC50 [11] is reported as > 50 µM (not active) and the IC50 [12] is reported as 83 µM (active).

In the case of `Cc1cc(C)c2nc(NNC(=O)c3ccc(S(=O)(=O)N4CCCC(C)C4)cc3)sc2c1` (configuration not stated), the AC50 [13] is reported as 1.81 µM (active), the EC50 [14] is reported as 8.41 µM (active) and the EC50 [15] is reported as 11.5 µM (active). The EC50 [16] was > 55.7 µM (not active), the EC50 [17] was 3.22 µM (active) and the EC50 [18] was 1.79 µM (active). For the same compound, the EC50 [19] was > 150 µM (not active), the EC50 [20] was 550 nM (active) and the EC50 [21] was > 350 µM (not active).

For `COc1ccc(CNc2ncnc3ccc(-c4ccccc4OC)cc23)c(OC)c1`, the AC50 [22] was 3.98 µM (inconclusive).
